In PubChem BioAssay AID1963965 (Molecular Pharmacology Branch, DTP, NCI, 2024):
Values joined by “and” are separate entries in the source; they are usually repeats but may differ in a detail not shown here. Identical values can stand only once.

System: 996289-038-R-J1-PDC spheroid viability
Assay: Anticancer human tumor 996289-038-R-J1-PDC patient-derived colon adenocarcinoma cell line growth inhibition [PI3K]
Details: spheroids with HUVEC and MSC; for viability, T/C: stronger effect = lower value
Source text: Combinatorial screen of targeted agents with the PI3K inhibitors inavolisib, alpelisib, duvelisib, and copanlisib in multi-cell type tumor spheroids
A high-throughput screen of multi-cell type tumor spheroids was designed to identify active combinations of targeted small molecules and PI3K pathway inhibitors. Complex spheroids include a stromal component modeled by human endothelial cells (HUVEC) and fibroblasts modeled by human mesenchymal stem cells (MSCs). The concentration ranges selected for each drug and investigational agent were based upon clinically achievable concentrations if the clinical Cmax of the agent was known.
Compounds. The drugs and investigational agents: inavolisib (NSC800729), alpelisib (NSC765974), duvelisib (NSC772469), copanlisib (NSC816437), ipatasertib (NSC767898), afuresertib (NSC778305), talazoparib (NSC767125), sapanisertib (NSC764658), selumetinib (NSC741078), tovorafenib (DAY101, NSC766906), vemurafenib (NSC761431), ravoxertinib (NSC781343), sotorasib (NSC818433), MRTX1133 (NSC 836407), abemaciclib (NSC 768073), palbociclib (NSC758247), venetoclax (NSC 766270), SY5609 (NSC837396), enzalutamide (NSC755605), and darolutamide (NSC825331), were obtained from the National Cancer Institute (NCI) Developmental Therapeutics Program Chemical Repository. The FDA-approved anticancer drug set is available from the NCI Developmental Therapeutics Program. […] The stock solutions were prepared in dimethyl sulfoxide (DMSO, Sigma-Aldrich, St. Louis, MO, cat. D2650) at 800-fold the tested concentration and stored at -70 degrees C prior to their use. All drugs and investigational agents were tested over a range starting from a high concentration at or near the clinical Cmax and decreasing in half-log increments. If the clinical Cmax for an agent had not been determined, the highest concentration tested was 10 microM.
Cell Culture. All cells were maintained in an incubator at 37 degrees C and 5% CO2 with 95% humidity. The PDC lines were cultured according to standard operating procedures established by the NCI PDMR (https://pdmr.cancer.gov/sops/default.htm). All PDCs were thawed and cultured in Matrigel-coated flasks prepared with a working solution of 1X Ham's F-12 nutrient mix, without supplementation (Invitrogen, Waltham, MA, cat. 11765054), 100 U/mL penicillin-streptomycin (Invitrogen, cat. 15140122), and 2.5% Matrigel (Corning Inc., Corning, NY, cat. 354248) for the first three passages. The 354836-022-R-J1-PDC, 475296-252-R-J1-PDC, and 997726-040-R-J2-PDC lines were cultured in 6A media, which includes advanced DMEM/F-12 (Thermo Fisher Scientific, cat. 12634028), 10 mM HEPES (Thermo Fisher Scientific, cat. 15630080), 1X GlutaMAX supplement (Thermo Fisher Scientific, cat. 35050061), 0.1 mg/mL primocin (InvivoGen, San Diego, CA, cat. ant-pm-2), 10% defined fetal bovine serum, heat inactivated (HyClone Laboratories Inc., Logan, UT, cat. SH30070.03HI), 50% L-WRN conditioned media (ATCC, cat. CRL-3276), 1.25 mM N-Acetyl-L-cysteine (Sigma-Aldrich, cat. A9165), 10 mM nicotinamide (Sigma-Aldrich, cat. N0636), 1X B-27 supplement (Thermo Fisher Scientific, cat. 17504044), 1X N-2 supplement (Thermo Fisher Scientific, cat. 17502048), and 10 microM Y-27632 dihydrochloride (Tocris Bioscience, Bristol, United Kingdom, cat. 1254). The 624824-186-R-J2-PDC line was cultured in 6C/Colon 1B media, which includes all 6A media components plus 50 ng/mL human EGF recombinant protein (Thermo Fisher Scientific, cat. PHG0311). […]

[1] = curve of first compound, second compound 0.00316 µM
[2] = curve of first compound, second compound 0.01 µM
[3] = curve of first compound, second compound 0.0316 µM
[4] = curve of first compound, second compound 0.1 µM
[5] = curve of first compound, second compound 0.316 µM
[6] = curve of first compound, second compound 1 µM
[7] = second compound 0.00316 µM, first compound 0.0316 µM
[8] = second compound 0.00316 µM, first compound 0.1 µM
[9] = second compound 0.00316 µM, first compound 0.316 µM
[10] = second compound 0.00316 µM, first compound 1 µM
[11] = second compound 0.00316 µM, first compound 3.16 µM
[12] = second compound 0.00316 µM, first compound 10 µM
[13] = second compound 0.01 µM, first compound 0.0316 µM
[14] = second compound 0.01 µM, first compound 0.1 µM
[15] = second compound 0.01 µM, first compound 0.316 µM
[16] = second compound 0.01 µM, first compound 1 µM
[17] = second compound 0.01 µM, first compound 3.16 µM
[18] = second compound 0.01 µM, first compound 10 µM
[19] = second compound 0.0316 µM, first compound 0.0316 µM
[20] = second compound 0.0316 µM, first compound 0.1 µM
[21] = second compound 0.0316 µM, first compound 0.316 µM
[22] = second compound 0.0316 µM, first compound 1 µM
[23] = second compound 0.0316 µM, first compound 3.16 µM
[24] = second compound 0.0316 µM, first compound 10 µM
[25] = second compound 0.1 µM, first compound 0.0316 µM
[26] = second compound 0.1 µM, first compound 0.1 µM
[27] = second compound 0.1 µM, first compound 0.316 µM
[28] = second compound 0.1 µM, first compound 1 µM
[29] = second compound 0.1 µM, first compound 3.16 µM
[30] = second compound 0.1 µM, first compound 10 µM
[31] = second compound 0.316 µM, first compound 0.0316 µM
[32] = second compound 0.316 µM, first compound 0.1 µM
[33] = second compound 0.316 µM, first compound 0.316 µM
[34] = second compound 0.316 µM, first compound 1 µM
[35] = second compound 0.316 µM, first compound 3.16 µM
[36] = second compound 0.316 µM, first compound 10 µM
[37] = second compound 1 µM, first compound 0.0316 µM
[38] = second compound 1 µM, first compound 0.1 µM
[39] = second compound 1 µM, first compound 0.316 µM
[40] = second compound 1 µM, first compound 1 µM
[41] = second compound 1 µM, first compound 3.16 µM
[42] = second compound 1 µM, first compound 10 µM
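Note: spheroids exposed to compounds for seven days before viability read.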
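Throughout, for viability, T/C: luminescence used as a proxy for viable cell amount; percent viability relative to DMSO vehicle control as 100%.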

## CC1(C)CCC(CN2CCN(c3ccc(C(=O)NS(=O)(=O)c4ccc(NCC5CCOCC5)c([N+](=O)[O-])c4)c(Oc4cnc5[nH]ccc5c4)c3)CC2)=C(c2ccc(Cl)cc2)C1
Compound 0.1 µM
  viability, T/C: 103% [middle of 4 runs]
Compound 0.316 µM
  viability, T/C: 101% [middle of 4 runs]
Compound 1 µM
  viability, T/C: 111% [middle of 4 runs]
Compound 3.16 µM
  viability, T/C: 112% [middle of 4 runs]
Compound 10 µM
  viability, T/C: 59.5% [middle of 4 runs]
Curve of compound
  IC50: > 10 µM and 8.8 µM and 8.7 µM

## CC1(C)CCC(CN2CCN(c3ccc(C(=O)NS(=O)(=O)c4ccc(NCC5CCOCC5)c([N+](=O)[O-])c4)c(Oc4cnc5[nH]ccc5c4)c3)CC2)=C(c2ccc(Cl)cc2)C1 + COc1c(OCCCN2CCOCC2)ccc2c3n(c(=NC(=O)c4cnc(N)nc4)nc12)CCN3
[1]
  IC50: 7.54 µM
[2]
  IC50: 7.76 µM
[3]
  IC50: 5.77 µM
[4]
  IC50: 4.2 µM
[5]
  IC50: < 0.0316 µM
[6]
  IC50: < 0.0316 µM
[7]
  viability, T/C: 88.5%
[8]
  viability, T/C: 97.1%
[9]
  viability, T/C: 94.2%
[10]
  viability, T/C: 110%
[11]
  viability, T/C: 106%
[12]
  viability, T/C: 34%
[13]
  viability, T/C: 95.6%
[14]
  viability, T/C: 88.6%
[15]
  viability, T/C: 84.2%
[16]
  viability, T/C: 97.7%
[17]
  viability, T/C: 103%
[18]
  viability, T/C: 37.6%
[19]
  viability, T/C: 81.3%
[20]
  viability, T/C: 84.2%
[21]
  viability, T/C: 72.9%
[22]
  viability, T/C: 86.1%
[23]
  viability, T/C: 90.5%
[24]
  viability, T/C: 19.7%
[25]
  viability, T/C: 65%
[26]
  viability, T/C: 62.5%
[27]
  viability, T/C: 62.8%
[28]
  viability, T/C: 59.5%
[29]
  viability, T/C: 65.2%
[30]
  viability, T/C: 10.3%
[31]
  viability, T/C: 40.4%
[32]
  viability, T/C: 36.2%
[33]
  viability, T/C: 33.9%
[34]
  viability, T/C: 36.9%
[35]
  viability, T/C: 38.6%
[36]
  viability, T/C: 11.3%
[37]
  viability, T/C: 19.5%
[38]
  viability, T/C: 19.5%
[39]
  viability, T/C: 21.1%
[40]
  viability, T/C: 23.3%
[41]
  viability, T/C: 18.8%
[42]
  viability, T/C: 6.87%

## CC(C)NCC(C(=O)N1CCN(c2ncnc3c2C(C)CC3O)CC1)c1ccc(Cl)cc1 (stereo not given) + COc1c(OCCCN2CCOCC2)ccc2c3n(c(=NC(=O)c4cnc(N)nc4)nc12)CCN3
[1]
  IC50: > 10 µM
[2]
  IC50: > 10 µM
[3]
  IC50: > 10 µM
[4]
  IC50: 4.89 µM
[5]
  IC50: < 0.0316 µM
[6]
  IC50: < 0.0316 µM
[7]
  viability, T/C: 98.9%
[8]
  viability, T/C: 82.3%
[9]
  viability, T/C: 103%
[10]
  viability, T/C: 103%
[11]
  viability, T/C: 103%
[12]
  viability, T/C: 62.2%
[13]
  viability, T/C: 87.6%
[14]
  viability, T/C: 84.9%
[15]
  viability, T/C: 101%
[16]
  viability, T/C: 102%
[17]
  viability, T/C: 106%
[18]
  viability, T/C: 65.3%
[19]
  viability, T/C: 86.3%
[20]
  viability, T/C: 77.1%
[21]
  viability, T/C: 78%
[22]
  viability, T/C: 89%
[23]
  viability, T/C: 76.1%
[24]
  viability, T/C: 51.1%
[25]
  viability, T/C: 59.7%
[26]
  viability, T/C: 55.8%
[27]
  viability, T/C: 57%
[28]
  viability, T/C: 66.9%
[29]
  viability, T/C: 57.3%
[30]
  viability, T/C: 36.7%
[31]
  viability, T/C: 32.9%
[32]
  viability, T/C: 33.7%
[33]
  viability, T/C: 38.1%
[34]
  viability, T/C: 32.5%
[35]
  viability, T/C: 38.6%
[36]
  viability, T/C: 27.1%
[37]
  viability, T/C: 24%
[38]
  viability, T/C: 18.5%
[39]
  viability, T/C: 18%
[40]
  viability, T/C: 23%
[41]
  viability, T/C: 20.1%
[42]
  viability, T/C: 15.3%
